In PubChem BioAssay (NCI):
Values joined by “and” are separate entries in the source; they are usually repeats but may differ in a detail not shown here. Identical values can stand only once.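 Interpolation was linear, between the two tested concentrations surrounding the appropriate level; five concentrations were tested over 48 hours in 96-well plates. GI50: concentration for 50% inhibition of growth. TGI marks complete inhibition of growth.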

Legend:
Assay in all cases: growth of human tumour cells (NCI), 48 h
[1] = test system: HCT-116 colon
[2] = test system: T-47D breast
[3] = test system: OVCAR-3 ovarian
[4] = test system: 786-0 renal
[5] = test system: ACHN renal
[6] = test system: RPMI-8226 leukemia
[7] = test system: SNB-19 CNS
[8] = test system: COLO 205 colon
[9] = test system: HCC-2998 colon
[10] = test system: BT-549 breast

Compound	GI50 [1] [µM]	TGI [1]	GI50 [2] [µM]	TGI [2] [µM]	GI50 [3] [µM]	TGI [3]	GI50 [4] [µM]	TGI [4]	GI50 [5] [µM]	TGI [5]	GI50 [6] [µM]	TGI [6]	GI50 [7] [µM]	TGI [7]	GI50 [8] [µM]	TGI [8] [µM]	GI50 [9]	TGI [9]	GI50 [10] [µM]	TGI [10]
CCCCN(CCCC)CCCn1c(=O)c2c3ccccc3n(C)c2n2nnc(-c3ccccc3)c12	18.4	> 100 µM	54.6	> 100	48.6	> 100 µM	39	> 100 µM	34.7	> 100 µM	6	49.4 µM	> 100	> 100 µM	5.01	62.9	20.3 µM	> 100 µM		
O=C(NCC(O)CNC(=O)C(F)(F)F)C(F)(F)F		> 100 µM				> 100 µM		> 100 µM				> 100 µM		> 100 µM		> 100		> 100 µM		
c1ccc(CN=C(NCc2ccccc2)NCc2ccccc2)cc1	3.97	17.3 µM	4.7	17	3.11	14.9 µM	11.4	25.7 µM	6.03	21.1 µM	4.7	24.4 µM	11	25 µM	1.98	4.03	3.65 µM	12.9 µM		
COc1cc2c(cc1OC)C(=O)Cc1ccc(OC)c(OC)c1CN(C)CC2		> 100 µM				> 100 µM		> 100 µM		> 100 µM		> 100 µM		> 100 µM		> 100		> 100 µM		
O=C1c2ccccc2C(=O)N1C/C=C/CO		> 100 µM				> 100 µM		> 100 µM		> 100 µM		> 100 µM		> 100 µM		> 100		> 100 µM		
CCOC(=O)/C(=C(/C)NCC(C)C)c1cc(O)c(O)c2c(C)cc(=O)[nH]c12	3.19	30.6 µM	5.09	> 100	3.16	> 100 µM	12.2	46.4 µM	7.99	> 100 µM	3.5	> 100 µM	13.8	> 100 µM	> 100	> 100			6.22	66.7 µM
CSCCOC(=O)C(=[N+]=[N-])c1ccc([N+](=O)[O-])cc1		> 100 µM				> 100 µM		> 100 µM		> 100 µM		> 100 µM		> 100 µM		> 100		> 100 µM		
O=C(NC1C2CC3CC(C2)CC1C3)c1cc(/C=C/c2ccccc2)[nH]c(=S)n1 (stereo unspecified)		> 100 µM				> 100 µM		> 100 µM		> 100 µM		> 100 µM		> 100 µM		> 100		> 100 µM		
O=C1CC(O)(c2ccccc2)C(c2ccccc2)=C1c1ccccc1 (stereo unspecified)						88.2 µM		> 100 µM		> 100 µM		57.7 µM				35.7		> 100 µM		
Cc1ccc(-c2nc(N3CCCNCC3)c3oc(-c4ccccc4)nc3n2)cc1			2.02	4	1.83	3.38 µM	1.43	2.81 µM	1.79	3.22 µM			1.82	3.45 µM	1.89	3.5	1.82 µM	3.27 µM		
COc1ccc2oc(C(=O)O)c3c2c1CCC3		> 100 µM				> 100 µM		> 100 µM		> 100 µM		> 100 µM		> 100 µM		> 100		> 100 µM		
CC1OC(OC2C(CO)OC(O[C@H]3CC[C@@]4(C)C(=CC[C@H]5[C@@H]6C[C@@H]7O[C@]8(CC[C@@H](C)CN8)[C@@H](C)[C@@H]7[C@@]6(C)CC[C@@H]54)C3)C(O)C2O)C(O)C(O)C1O (stereo partly specified)		> 100 µM				> 100 µM		> 100 µM		> 100 µM		> 100 µM		> 100 µM		> 100				
Cc1cc2c(c3oc(C4(C)OC4C4OC4C)cc(=O)c13)C(=O)c1c(O)c(C3CC(C)(N(C)C)C(O)C(C)O3)cc(C3CC(N(C)C)C(O)C(C)O3)c1C2=O (stereo unspecified)			0.000251				0.000463			8.08e-05 µM and 0.000153 µM		0.0142 µM and 0.0557 µM and 0.00725 µM		0.0713 µM and 0.00863 µM and 0.0158 µM				0.000891 µM	0.000234	0.000414 µM and 0.00222 µM
CCOc1ccccc1NC(=O)CCc1n[nH]c(=S)o1		> 100 µM				> 100 µM		> 100 µM		> 100 µM		> 100 µM		> 100 µM						
CCOC(=O)/C(C#N)=C1/C(O)=C(C(=O)OC)C(C(=O)OC)=C1C(=O)OC						> 100 µM		> 100 µM		> 100 µM		> 100 µM		> 100 µM		> 100		> 100 µM		
CC[C@@H]1C[C@H]2CC3c4[nH]c5ccc(O)cc5c4CCN(C2)C31		> 100 µM				> 100 µM		> 100 µM		> 100 µM		> 100 µM		> 100 µM		> 100		> 100 µM		
C=C(CN1CCN(c2cccc(C(F)(F)F)n2)CC1)c1ccc(C(=S)Nc2ccccc2N)cc1	2.76	19.8 µM	2.26	8.54	4.34	> 100 µM	4.29	> 100 µM	3.88	> 100 µM			4.12	> 100 µM	3.19	11.8	5.74 µM	> 100 µM	4.4	> 100 µM
CC1(C)CCC(C)(C)c2c1ccc(O)c2Cc1c(O)ccc2c1C(C)(C)CCC2(C)C		4.2 µM		3.8		4.32 µM		3.61 µM		3.19 µM		4.47 µM		5.4 µM		4.44				5.2 µM

Compound	GI50 [1] [µM]	TGI [1]	GI50 [2] [µM]	TGI [2] [µM]	GI50 [3] [µM]	TGI [3]	GI50 [4] [µM]	TGI [4]	GI50 [5] [µM]	TGI [5]	GI50 [6] [µM]	TGI [6]	GI50 [7] [µM]	TGI [7]	GI50 [8] [µM]	TGI [8] [µM]	GI50 [9]	TGI [9]	GI50 [10] [µM]	TGI [10]
c1ccc2c(c1)[nH]c1c2nc2ncccn21		> 100 µM						> 100 µM		> 100 µM				> 100 µM				> 100 µM		
CCN(CC)CCCC(C)N=c1cc(Nc2cc(=NC(C)CCCN(CC)CC)c3cc(OC)ccc3o2)oc2ccc(OC)cc12 (stereo unspecified)	0.683	1.81 µM	2.92	13.2	1.29	2.92 µM	2.26	8.01 µM			1.24	3.41 µM	1.99	13 µM	0.632	1.36	1.85 µM	7.14 µM	3.16	9.49 µM
N#CC1=C(N)NC(=S)NC12Nc1ccccc1N2	50	> 100 µM	69.7	> 100	22	> 100 µM	51.7	> 100 µM			21.7	> 100 µM	90.1	> 100 µM	32.6	> 100			33.1	91.2 µM
CC(=O)[C@@]1(O)[C@H](C)C[C@H]2[C@@H]3C=C(C)C4=Cc5c(cnn5-c5ccccc5)C[C@]4(C)[C@H]3[C@@H](O)C[C@@]21C	2.46	11.4 µM	2.3	10.3	2.08	4.84 µM	2.23	5.2 µM	2.75	11.3 µM			3.29	14.2 µM	1.86	3.93	2.13 µM	5.73 µM	1.29	5.17 µM
CNC(=O)c1cccc2c(Nc3ccc(NS(C)(=O)=O)cc3OC)c3cccc(C)c3nc12		2.86 µM				5.02 µM		0.413 µM		0.322 µM		1.7 µM		5.04 µM		5.24		2.34 µM		
C[n+]1ccc(-c2c3nc(c(-c4cc[n+](C)cc4)c4ccc([n-]4)c(-c4cc[n+](C)cc4)c4nc(c(-c5cc[n+](C)cc5)c5ccc2[n-]5)C=C4)C=C3)cc1.[I-].[Zn+2]	50.5	> 100 µM			7.02	28.1 µM	8.39	28 µM	15.5	36.2 µM	32.1	> 100 µM	19.4	45.5 µM	18.3	35.8	49.6 µM	> 100 µM		
CC(C)(C)OC(=O)NC(CO)c1cccc(OCc2ccccc2)c1 (stereo unspecified)		> 100 µM				> 100 µM		> 100 µM		> 100 µM		> 100 µM		> 100 µM		> 100		> 100 µM		
O=c1oc(=O)c2oc3ccccc3oc1=2		> 100 µM				> 100 µM		> 100 µM		> 100 µM				> 100 µM		> 100		> 100 µM		
CSc1ncnc2c1ncn2C1OC(CO)C(O)OC1O (stereo unspecified)		21.6 µM		17.7		16.7 µM		43.5 µM		> 100 µM		79.5 µM		51.5 µM		11.8				48.5 µM
S=C(N/N=C(/c1ccccc1)c1ccccn1)N1CCCCCC1	< 0.001	1.43 µM and 1.38 µM	< 0.001		< 0.001	1.76 µM and 1.23 µM	< 0.001	1.46 µM and 1.77 µM	0.00216	1.58 µM and 1.47 µM			0.274	2.27 µM and 2.06 µM	< 0.001		1.17 µM	3.13 µM and 1.98 µM		2.07 µM
COc1ccc(-c2cc(-c3ccc(O)cc3)nc3n[nH]c(N)c23)cc1	17.4	37.3 µM	18	83.5	13.5	31.7 µM	26	74.3 µM	18.2	87.9 µM	21.1	66.8 µM	33.3	> 100 µM	14.6	32.4			15.5	32.6 µM
O=S(O)CCCSSc1ccccc1		> 100 µM				> 100 µM		> 100 µM		> 100 µM				> 100 µM		> 100		> 100 µM		
CC1=C[P+](Cc2ccccc2)(c2ccccc2)CC1 (stereo unspecified)		> 100 µM				> 100 µM		> 100 µM		> 100 µM		> 100 µM		> 100 µM		> 100	97.7 µM and > 100 µM and 39.3 µM	> 100 µM		
O=c1c2c3c(sc2nc(N/N=C/c2ccc(Br)cc2)n1Cc1ccccc1)CCCC3	5.66	> 100 µM	21.2	> 100	32.5	> 100 µM	3.07	> 100 µM	> 100	> 100 µM			41.8	> 100 µM	5.88	> 100	> 100 µM	> 100 µM	8.02	> 100 µM
C=C(C)[C@@H]1CC[C@]2(CO)CC[C@]3(C)[C@H](CC[C@@H]4[C@@]5(C)CCC(NCCc6ccc(O)cc6)C(C)(C)[C@@H]5CC[C@]43C)[C@@H]12 (stereo partly specified)	1.39	2.84 µM	1.51	3.19	1.69	3.21 µM	1.66	3.26 µM	1.62	2.97 µM					1.12	2.68	0.97 µM	2.23 µM	1.75	3.27 µM
CN(C)CCCNC(=O)c1cncnc1Nc1ccc(OCc2cccc(F)c2)c(Cl)c1	1.47	2.79 µM	1.82	4.28	1.49	2.88 µM	1.66	3.1 µM	1.7	3.06 µM			1.72	3.11 µM	1.79	3.57	1.55 µM	3.01 µM	1.59	3.06 µM
COc1ccc(OC(C(=O)O)c2ccccc2)c2c1CCCC2=O (stereo unspecified)		> 100 µM				> 100 µM		> 100 µM		> 100 µM		> 100 µM		> 100 µM		> 100		> 100 µM		
CCOC(=O)[C@@H](C)C[C@H](Cc1ccccc1)NC(=O)c1csc([C@@H](C[C@H](C(C)C)N(C)C(=O)[C@H](CC)NC(=O)[C@H]2CCCCN2C)OC(C)=O)n1	< 0.00167	1.68 µM			< 0.00167	0.00453 µM	0.00387	> 16.7 µM	0.00196	> 16.7 µM	< 0.00167	> 16.7 µM	0.00199	> 16.7 µM	< 0.00167	0.0211	0.00267 µM	> 5.64 µM	0.00368	0.143 µM
